This assay concerns the target GCN2 kinase (Homo sapiens, UniProt Q9P2K8). Kind of assay: GCN2 enzyme inhibition assay (Transcreener ADP2 fluorescence polarization). It is filed as biochemical. Particulars: Enzyme activity for compounds of Formula IV; Ki(app), 280 μM ATP, 25° C. A digest of the protocol: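 ADP formation read by Transcreener FP after a 1 h, 25 °C kinase reaction containing 280 μM ATP, 200 μM (RS)7 substrate and 4 nM GCN2, pH 7.5 Tris buffer. Compounds (0–8 μM final) were added 10 min before ATP. Percent inhibition gave IC50 and apparent Ki via tight-binding fit.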
On the technique in general: In fluorescence polarisation assays a small probe gives low polarisation when free and higher when bound to something large.

Chain of GCN2 kinase (Q9P2K8 whole entry): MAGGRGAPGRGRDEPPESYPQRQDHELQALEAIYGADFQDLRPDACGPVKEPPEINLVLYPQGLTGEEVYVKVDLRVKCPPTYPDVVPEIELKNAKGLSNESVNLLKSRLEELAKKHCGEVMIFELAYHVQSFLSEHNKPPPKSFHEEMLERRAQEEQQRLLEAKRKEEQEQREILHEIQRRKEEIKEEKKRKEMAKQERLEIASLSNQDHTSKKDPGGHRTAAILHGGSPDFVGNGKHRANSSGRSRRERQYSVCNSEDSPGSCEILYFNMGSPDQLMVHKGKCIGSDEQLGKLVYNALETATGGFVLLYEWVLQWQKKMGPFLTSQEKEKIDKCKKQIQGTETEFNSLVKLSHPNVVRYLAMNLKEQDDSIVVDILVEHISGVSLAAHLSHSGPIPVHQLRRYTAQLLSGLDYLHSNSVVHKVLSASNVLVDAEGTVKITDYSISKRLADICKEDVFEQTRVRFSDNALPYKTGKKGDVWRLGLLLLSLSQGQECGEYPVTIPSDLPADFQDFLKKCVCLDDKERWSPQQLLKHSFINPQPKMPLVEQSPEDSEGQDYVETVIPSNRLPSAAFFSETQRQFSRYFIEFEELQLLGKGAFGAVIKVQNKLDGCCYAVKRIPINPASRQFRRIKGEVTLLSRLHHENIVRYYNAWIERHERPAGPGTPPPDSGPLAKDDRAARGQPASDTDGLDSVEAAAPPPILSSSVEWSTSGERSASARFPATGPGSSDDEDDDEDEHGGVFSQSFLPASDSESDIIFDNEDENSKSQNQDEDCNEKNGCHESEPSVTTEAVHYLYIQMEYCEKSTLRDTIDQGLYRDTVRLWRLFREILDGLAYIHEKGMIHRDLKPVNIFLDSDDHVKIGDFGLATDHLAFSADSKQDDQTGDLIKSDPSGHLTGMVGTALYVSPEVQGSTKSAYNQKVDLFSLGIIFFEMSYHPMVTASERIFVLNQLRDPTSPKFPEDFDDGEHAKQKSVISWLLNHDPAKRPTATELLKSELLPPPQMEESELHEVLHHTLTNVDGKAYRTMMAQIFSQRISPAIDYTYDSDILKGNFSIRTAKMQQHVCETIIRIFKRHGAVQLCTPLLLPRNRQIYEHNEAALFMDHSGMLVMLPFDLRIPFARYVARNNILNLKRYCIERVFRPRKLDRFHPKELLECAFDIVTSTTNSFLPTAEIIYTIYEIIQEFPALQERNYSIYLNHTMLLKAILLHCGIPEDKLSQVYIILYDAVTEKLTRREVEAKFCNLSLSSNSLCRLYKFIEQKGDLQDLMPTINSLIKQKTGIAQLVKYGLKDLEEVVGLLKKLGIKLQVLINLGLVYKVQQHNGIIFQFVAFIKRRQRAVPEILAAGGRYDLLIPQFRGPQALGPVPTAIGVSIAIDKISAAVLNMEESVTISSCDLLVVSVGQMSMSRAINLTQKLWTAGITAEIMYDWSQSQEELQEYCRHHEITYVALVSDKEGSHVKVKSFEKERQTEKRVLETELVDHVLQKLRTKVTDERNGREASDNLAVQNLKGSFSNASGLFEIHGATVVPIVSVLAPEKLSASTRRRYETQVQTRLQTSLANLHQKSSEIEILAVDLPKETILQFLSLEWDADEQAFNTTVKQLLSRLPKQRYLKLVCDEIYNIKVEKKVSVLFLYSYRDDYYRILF

For `NC(=O)c1cn2c(-c3nccc(N4CCC5(CCCO5)CC4)n3)cnc2cn1` [IV-269, 3-(4-(1-Oxa-8-azaspiro[4.5]decan-8-yl)pyrimidin-2-yl)imidazo[1,2-a]pyrazine-6-carboxamide], the Ki was 0.01 to 0.1 µM.

Compound `NC(=O)c1cn2c(-c3nccc(N4CC5(CCOC5)C4)n3)cnc2cn1` [IV-270, 3-(4-(6-Oxa-2-azaspiro[3.4]octan-2-yl)pyrimidin-2-yl)imidazo[1,2-a]pyrazine-6-carboxamide] came in with a Ki of 0.1 to 1 µM.

Turning to `CC1CCC(C)N(c2ccnc(-c3cnc4cnc(C(N)=O)cn34)n2)C1` (centres unmarked) [IV-271, 3-(4-(2,5-Dimethylpiperidin-1-yl)pyrimidin-2-yl)imidazo[1,2-a]pyrazine-6-carboxamide], the Ki lay in the range of 0.1 to 1 µM.

Compound `CC(=O)N1CCN(c2ccnc(-c3cnc4cnc(C(N)=O)cn34)n2)C(C)C1` (centres unmarked) [IV-272, 3-(4-(4-Acetyl-2-methylpiperazin-1-yl)pyrimidin-2-yl)imidazo[1,2-a]pyrazine-6-carboxamide] displayed a Ki of 0.1 to 1 µM.

Take `CC(=O)N1CCN(c2cccc(-c3cnc4cnc(C(=O)N(C)C)cn34)n2)CC1` [IV-276, 3-(6-(4-Acetylpiperazin-1-yl)pyridin-2-yl)-N,N-dimethylimidazo[1,2-a]pyrazine-6-carboxamide]: the Ki was in the range of 0.1 to 1 µM.

`NC(=O)c1cn2c(-c3nccc(N4CCN(C(=O)C5CC5)CC4)n3)cnc2cn1` [IV-277, 3-(4-(4-(Cyclopropanecarbonyl)piperazin-1-yl)pyrimidin-2-yl)imidazo[1,2-a]pyrazine-6-carboxamide] came in with a Ki of 0.01 to 0.1 µM.

Regarding `Cc1[nH]ncc1C1NC(C)CN(c2ccnc(-c3cnc4cnc(Cl)cn34)n2)C1C` (centres unmarked) [IV-278, 6-Chloro-3-(4-(2,5-dimethyl-3-(5-methyl-1H-pyrazol-4-yl)piperazin-1-yl)pyrimidin-2-yl)imidazo[1,2-a]pyrazine], the Ki is under 0.01 µM.

In turn, `NC(=O)c1cn2c(-c3cccc(N4CCN(C(=O)C5CC5)CC4)n3)cnc2cn1` [IV-284, 3-(6-(4-(Cyclopropanecarbonyl)piperazin-1-yl)pyridin-2-yl)imidazo[1,2-a]pyrazine-6-carboxamide] came in with a Ki of 0.1 to 1 µM.

Compound `CC(=O)N1CCN(c2ccnc(-c3cnc4cnc(-c5ccncc5)cn34)n2)CC1` [IV-285, 1-(4-(2-(6-(Pyridin-4-yl)imidazo[1,2-a]pyrazin-3-yl)pyrimidin-4-yl)piperazin-1-yl)ethan-1-one] gave a Ki of 0.01 to 0.1 µM.

In turn, `O=C1CCCC2CN(c3ccnc(-c4cnc5cnc(Cl)cn45)n3)CCN12` (centres unmarked) [IV-286, 2-(2-(6-Chloroimidazo[1,2-a]pyrazin-3-yl)pyrimidin-4-yl)octahydro-6H-pyrido[1,2-c]pyrazin-6-one] came in with a Ki of 0.01 to 0.1 µM.

As to `CC(=O)N1CCN(c2ccnc(-c3cnc4cnc(-c5cccnc5)cn34)n2)CC1` [IV-289, 1-(4-(2-(6-(Pyridin-3-yl)imidazo[1,2-a]pyrazin-3-yl)pyrimidin-4-yl)piperazin-1-yl)ethan-1-one], the Ki was 0.1 to 1 µM.

On to `CCN1C(C)CN(c2ccnc(-c3cnc4cnc(C(F)(F)F)cn34)n2)C(C)C1c1cn[nH]c1` (centres unmarked) [IV-292, 3-(4-(4-Ethyl-2,5-dimethyl-3-(1H-pyrazol-4-yl)piperazin-1-yl)pyrimidin-2-yl)-6-(trifluoromethyl)imidazo[1,2-a]pyrazine], for which the Ki was under 0.01 µM.

Consider `CC(=O)N1CCN(c2ccnc(-c3cnc4cnc(-c5ccccc5)cn34)n2)CC1` [IV-297, 1-(4-(2-(6-Phenylimidazo[1,2-a]pyrazin-3-yl)pyrimidin-4-yl)piperazin-1-yl)ethan-1-one], for which the Ki was 0.1 to 1 µM.

Consider `CC(=O)Nc1ccc(-c2cn3c(-c4nccc(N5CCN(C(C)=O)CC5)n4)cnc3cn2)cc1` [IV-298, N-(4-(3-(4-(4-Acetylpiperazin-1-yl)pyrimidin-2-yl)imidazo[1,2-a]pyrazin-6-yl)phenyl)acetamide], for which the Ki is 0.1 to 1 µM.

Compound `CCOc1cccc(-c2cn3c(-c4nccc(N5CCN(C(C)=O)CC5)n4)cnc3cn2)c1` [IV-299, 1-(4-(2-(6-(3-Ethoxyphenyl)imidazo[1,2-a]pyrazin-3-yl)pyrimidin-4-yl)piperazin-1-yl)ethan-1-one] gave a Ki of 0.01 to 0.1 µM.

`CC(=O)N1CCN(c2ccnc(-c3cnc4cnc(-c5c[nH]nc5C)cn34)n2)CC1` [IV-300, 1-(4-(2-(6-(3-Methyl-1H-pyrazol-4-yl)imidazo[1,2-a]pyrazin-3-yl)pyrimidin-4-yl)piperazin-1-yl)ethan-1-one] showed a Ki of 0.1 to 1 µM.

Regarding `CC(=O)N1CCN(c2ccnc(-c3cnc4cnc(-c5ccccc5C#N)cn34)n2)CC1` [IV-301, 2-(3-(4-(4-Acetylpiperazin-1-yl)pyrimidin-2-yl)imidazo[1,2-a]pyrazin-6-yl)benzonitrile], the Ki was in the range of 0.1 to 1 µM.

For `CC(=O)N1CCN(c2ccnc(-c3cnc4cnc(-c5ccc(CO)cc5)cn34)n2)CC1` [IV-302, 1-(4-(2-(6-(4-(Hydroxymethyl)phenyl)imidazo[1,2-a]pyrazin-3-yl)pyrimidin-4-yl)piperazin-1-yl)ethan-1-one], the Ki fell in the range of 0.1 to 1 µM.

For the compound `CC(=O)N1CCN(c2ccnc(-c3cnc4cnc(-c5ccc(C(N)=O)cc5)cn34)n2)CC1` [IV-303, 4-(3-(4-(4-Acetylpiperazin-1-yl)pyrimidin-2-yl)imidazo[1,2-a]pyrazin-6-yl)benzamide], the Ki was in the range of 0.1 to 1 µM.

`CC1CC(c2cn[nH]c2)C(C)N(c2ccnc(-c3cnc4cnc(C(F)(F)F)cn34)n2)C1` (centres unmarked) [IV-304, 3-(4-(2,5-Dimethyl-3-(1H-pyrazol-4-yl)piperidin-1-yl)pyrimidin-2-yl)-6-(trifluoromethyl)imidazo[1,2-a]pyrazine] displayed a Ki of under 0.01 µM.

On to `CC(=O)N1CCN(c2ccnc(-c3cnc4cnc(-c5cn(C)nc5C)cn34)n2)CC1` [IV-307, 1-(4-(2-(6-(1,3-Dimethyl-1H-pyrazol-4-yl)imidazo[1,2-a]pyrazin-3-yl)pyrimidin-4-yl)piperazin-1-yl)ethan-1-one], for which the Ki was in the range of 0.1 to 1 µM.

`CC(=O)N1CCN(c2ccnc(-c3cnc4cnc(-c5cccc(CO)c5)cn34)n2)CC1` [IV-308, 1-(4-(2-(6-(3-(Hydroxymethyl)phenyl)imidazo[1,2-a]pyrazin-3-yl)pyrimidin-4-yl)piperazin-1-yl)ethan-1-one] showed a Ki of 0.1 to 1 µM.

Take `CC(=O)N1CCN(c2ccnc(-c3cnc4cnc(-c5cccc(O)c5)cn34)n2)CC1` [IV-309, 1-(4-(2-(6-(3-Hydroxyphenyl)imidazo[1,2-a]pyrazin-3-yl)pyrimidin-4-yl)piperazin-1-yl)ethan-1-one]: the Ki is 0.01 to 0.1 µM.

In turn, `FC(F)(F)c1cn2c(-c3nccc(N4CCCC(c5ccno5)C4)n3)cnc2cn1` (centres unmarked) [IV-317, 5-(1-(2-(6-(Trifluoromethyl)imidazo[1,2-a]pyrazin-3-yl)pyrimidin-4-yl)piperidin-3-yl)isoxazole] came in with a Ki of 0.01 to 0.1 µM.

As to `CC1CCN(c2ccnc(-c3cnc4cnc(C(F)(F)F)cn34)n2)CC1n1ccnc1` (centres unmarked) [IV-319, 3-(4-(3-(1H-Imidazol-1-yl)-4-methylpiperidin-1-yl)pyrimidin-2-yl)-6-(trifluoromethyl)imidazo[1,2-a]pyrazine], the Ki is 0.1 to 1 µM.

`CC1CCN(c2ccnc(-c3cnc4cnc(C(F)(F)F)cn34)n2)CC1n1ccnc1` (centres unmarked) [IV-320, 3-(4-(3-(1H-Imidazol-1-yl)-4-methylpiperidin-1-yl)pyrimidin-2-yl)-6-(trifluoromethyl)imidazo[1,2-a]pyrazine] came in with a Ki of 0.1 to 1 µM.

Compound `FC(F)(F)c1cn2c(-c3nccc(N4CCCC(c5ncon5)C4)n3)cnc2cn1` (centres unmarked) [IV-321, 3-(1-(2-(6-(Trifluoromethyl)imidazo[1,2-a]pyrazin-3-yl)pyrimidin-4-yl)piperidin-3-yl)-1,2,4-oxadiazole] displayed a Ki of 0.1 to 1 µM.

Turning to `FC(F)(F)c1cn2c(-c3nccc(N4CCCC(c5ncno5)C4)n3)cnc2cn1` (centres unmarked) [IV-322, 5-(1-(2-(6-(Trifluoromethyl)imidazo[1,2-a]pyrazin-3-yl)pyrimidin-4-yl)piperidin-3-yl)-1,2,4-oxadiazole], the Ki was 0.1 to 1 µM.

As to `FC(F)(F)c1cn2c(-c3nccc(N4CCCC(c5c[nH]cn5)C4)n3)cnc2cn1` (centres unmarked) [IV-325, 3-(4-(3-(1H-Imidazol-4-yl)piperidin-1-yl)pyrimidin-2-yl)-6-(trifluoromethyl)imidazo[1,2-a]pyrazine], the Ki was 0.01 to 0.1 µM.

Compound `FC(F)(F)c1cn2c(-c3nccc(N4CCCC(c5nnc[nH]5)C4)n3)cnc2cn1` (centres unmarked) [IV-326, 3-(4-(3-(4H-1,2,4-Triazol-3-yl)piperidin-1-yl)pyrimidin-2-yl)-6-(trifluoromethyl)imidazo[1,2-a]pyrazine] came in with a Ki of 0.1 to 1 µM.

`CC1(C)CN(c2ccnc(-c3cnc4cnc(C(F)(F)F)cn34)n2)CC(c2cn[nH]c2)N1` (centres unmarked) [IV-327, 3-(4-(3,3-Dimethyl-5-(1H-pyrazol-4-yl)piperazin-1-yl)pyrimidin-2-yl)-6-(trifluoromethyl)imidazo[1,2-a]pyrazine] yielded a Ki of 0.01 to 0.1 µM.

`CC(C)C1CN(c2ccnc(-c3cnc4cnc(C(F)(F)F)cn34)n2)C(C)C(c2cn[nH]c2)N1` (centres unmarked) [IV-330, 3-(4-(5-Isopropyl-2-methyl-3-(1H-pyrazol-4-yl)piperazin-1-yl)pyrimidin-2-yl)-6-(trifluoromethyl)imidazo[1,2-a]pyrazine] showed a Ki of 0.01 to 0.1 µM.

`FC(F)(F)c1cn2c(-c3nccc(N4CCCC(c5nn[nH]n5)C4)n3)cnc2cn1` (centres unmarked) [IV-331, 3-(4-(3-(2H-Tetrazol-5-yl)piperidin-1-yl)pyrimidin-2-yl)-6-(trifluoromethyl)imidazo[1,2-a]pyrazine] had a Ki of 0.1 to 1 µM.

Turning to `O=CNC1CCCN(c2ccnc(-c3cnc4cnc(C(F)(F)F)cn34)n2)C1` (centres unmarked) [IV-332, N-(1-(2-(6-(trifluoromethyl)imidazo[1,2-a]pyrazin-3-yl)pyrimidin-4-yl)piperidin-3-yl)formamide], the Ki lay within 0.1 to 1 µM.

In turn, `Brc1cn2c(-c3nccc(N4CCNC(c5c[nH]cn5)C4)n3)cnc2cn1` (centres unmarked) [IV-348, 3-(4-(3-(1H-Imidazol-4-yl)piperazin-1-yl)pyrimidin-2-yl)-6-bromoimidazo[1,2-a]pyrazine] had a Ki of 0.01 to 0.1 µM.

The values are drawn from patent US10988477B2 (Merck Patent GmbH, priority 2018, dated 2021).
